± gives the expanded uncertainty stated by the source.
Key:
[1] = refractive index (Na D-line) (dimensionless); settings: 298.15 K; 101.33 kPa; Liquid; Standard Abbe refractometry
[2] = Liquid, Ebulliometric method (Recirculating still)

Cc1ccccc1 [toluene]
refractive index [1]: 1.4939 ± 0.0007

CCOC(C)(C)C [2-ethoxy-2-methylpropane]
refractive index [1]: 1.373 ± 0.0007 | vapor or sublimation pressure ([2]; 312.51 K): 30.76 ± 0.37 kPa | vapor or sublimation pressure ([2]; 318.88 K): 39.54 ± 0.37 kPa | vapor or sublimation pressure ([2]; 326.24 K): 52.05 ± 0.39 kPa | vapor or sublimation pressure ([2]; 331.11 K): 62.01 ± 0.4 kPa | vapor or sublimation pressure ([2]; 333.15 K): 66.52 ± 0.51 kPa | vapor or sublimation pressure ([2]; 335.04 K): 71.06 ± 0.42 kPa | vapor or sublimation pressure ([2]; 339.18 K): 81.64 ± 0.43 kPa | vapor or sublimation pressure ([2]; 342.53 K): 91.06 ± 0.45 kPa | vapor or sublimation pressure ([2]; 343.15 K): 92.96 ± 0.56 kPa | vapor or sublimation pressure ([2]; 345.9 K): 101.41 ± 0.46 kPa

CCSCC [3-thiapentane]
refractive index [1]: 1.44 ± 0.0007 | vapor or sublimation pressure ([2]; 333.15 K): 34.97 ± 0.41 kPa | vapor or sublimation pressure ([2]; 343.15 K): 50.14 ± 0.45 kPa | vapor or sublimation pressure ([2]; 353.15 K): 70.15 ± 0.49 kPa

C1CCCCC1 [cyclohexane]
refractive index [1]: 1.4235 ± 0.0007 | vapor or sublimation pressure ([2]; 318.47 K): 30.51 ± 0.37 kPa | vapor or sublimation pressure ([2]; 326.06 K): 40.65 ± 0.37 kPa | vapor or sublimation pressure ([2]; 331.63 K): 49.56 ± 0.38 kPa | vapor or sublimation pressure ([2]; 337.52 K): 60.6 ± 0.39 kPa | vapor or sublimation pressure ([2]; 342.21 K): 70.8 ± 0.41 kPa | vapor or sublimation pressure ([2]; 343.15 K): 72.66 ± 0.52 kPa | vapor or sublimation pressure ([2]; 346.25 K): 80.64 ± 0.43 kPa | vapor or sublimation pressure ([2]; 350.08 K): 90.89 ± 0.44 kPa | vapor or sublimation pressure ([2]; 353.15 K): 99.41 ± 0.58 kPa | vapor or sublimation pressure ([2]; 353.32 K): 100.38 ± 0.45 kPa

— the NIST ThermoML archive (doi:10.1016/j.fluid.2006.12.015)
